Experimental findings from paper PMC12429151 (International Journal of Molecular Sciences, 2025) are described below.

Molecules are shown by their SMILES. Some results are limits rather than exact numbers.

The subject of data set [1] is A549-xenografted tumors. The data set can be described thus: A549 xenograft nude mouse model. Conditions: cisplatin 5 mg/kg intravenous.
Protocol: The body weights of mice and their tumor sizes were measured twice a week. Cisplatin was used as internal control.
The four-week-old female Balb/c nu/nu mice were bought from Orient Bio (Sungnam, Republic of Korea) and maintained for two weeks at 25 ± 2 °C in 50 ± 5% relative humidity with 12 h dark/light cycles. Then, 5 × 10^6 A546 human lung cancer cells mixed with Matrigel were injected subcutaneously into the right dorsal area. […] The body weights and tumor sizes of the mice were measured twice a week for five weeks. […] The tumor volume in each mouse was determined using the following formula: tumor volume (mm^3) = length × width^2 × 0.5.
Data set [2] relates to cancer and normal cells. The experiment in a line: AV/PI flow cytometric analysis, positive control. The data set is classed as cell-based, human. To be noted: 24 h, AV/PI staining. The protocol:
5 × 10^5/well cells were plated into 6-well plates and incubated at 37 °C with 5% CO2 for 24 h to allow adhesion. […] The conditioned medium was collected into a 15 mL conical tube to retrieve the floating cells, while adherent cells were detached using trypsin. The floating cells in the collected medium were combined with the detached adherent cells and centrifuged for 2 min at 3000 rpm at 4 °C to collect the cells. The cell pellet was resuspended using 1x binding buffer containing AV and PI and incubated for 30 min at 37 °C. The cells were analyzed using a CytoFLEX Flow Cytometer (Beckman Coulter, Brea, CA, USA).
(In general: In flow cytometry, cells or beads pass a laser one at a time.)

In data set [3] the test system is human red blood cells (RBCs). The data set can be described thus: Hemolysis assay. The data set is classed as cell-based. Conditions: human RBCs in PBS, 37 °C, 1 h, absorbance 405 nm, relative to 1% Triton X-100. As to the method: This study was approved by the Institutional Review Board of Dongguk University (No.: DGU IRB 20200007-01). RBCs were prepared from human blood obtained from the Korean Red Cross by centrifugation at 2000 rpm for 30 min at 10 °C, followed by pellet collection. RBC pellets were washed by resuspending in phosphate-buffered saline (PBS) and centrifugation at 2000 rpm for 30 min at 10 °C thrice. Subsequently, RBCs were resuspended in PBS and 50 μL/well of RBC solution was loaded into a 96-well plate. […] Finally, the absorbance of the supernatant was measured at 405 nm using an Epoch ELISA Reader. […] All the absorbance values were normalized to those of PBS.

The subject of data set [4] is Caco-2 cells. The data set can be described thus: MTT cell viability assay. Conditions: Caco-2, 24 h treatment, absorbance 530 nm. As to the method: (§1) Then, the cells were further incubated for 4 h in the dark after adding MTT reagent. After incubation, formed formazan crystal was dissolved. The absorbance of the solubilized formazan was measured at 530 nm to determine cell viability of each AMP.
(§2) A549 human lung cancer cells, MDA-MB-231 triple-negative human breast cancer cells, HT-29 human colorectal adenocarcinoma, Panc-1 human pancreatic cancer cell line, and Caco2 human epithelial cell line were purchased from the Korean Cell Line Bank (Seoul, Republic of Korea). HaCaT human keratinocytes were gifted by Professor Su-Kyung Kim (Department of Pharmacology, Keimyung University School of Medicine). The cells were routinely grown in Dulbecco’s Modified Eagle Medium supplemented with 10% fetal bovine serum and 1% antimycotic/antibiotic solution at 37 °C in an atmosphere containing 5% CO2.
(§3) 1 × 10^4 cells were seeded into each well in a 96-well plate and attached for 24 h at 37 °C. […] The medium was removed, and the cells were incubated for 4 h in the dark after adding 50 μL of MTT reagent (Sigma-Aldrich; Merck KGaA, Darmstadt, Germany) in an each well.
(Formazan colour is commonly taken as a measure of viable cells.)

In data set [5] the test system is HaCaT cells. The experiment in a line: MTT cell viability assay. To be noted: 24 h treatment, absorbance 530 nm. As to the method: as §1, §2, §3

Turning to `N.N.[Cl][Pt][Cl]` [cisplatin], the body weight result in data set [1] is on record as “significant body weight loss”. Also, the tumor growth result in data set [1] (twice in the first week, start at about 400 mm^3) is given as “effectively suppressed”.

Regarding `CC[C@H](C)[C@H](NC(=O)CN)C(=O)NCC(=O)N[C@@H](C)C(=O)N[C@H](C(=O)N[C@@H](CC(C)C)C(=O)N[C@@H](CCCCN)C(=O)N[C@H](C(=O)N[C@@H](CC(C)C)C(=O)N[C@H](C(=O)N[C@H](C(=O)NCC(=O)N[C@@H](CC(C)C)C(=O)N1CCC[C@H]1C(=O)N[C@@H](C)C(=O)N[C@@H](CC(C)C)C(=O)N[C@H](C(=O)N[C@@H](CO)C(=O)N[C@@H](Cc1c[nH]c2ccccc12)C(=O)N[C@H](C(=O)N[C@@H](CCCCN)C(=O)N[C@@H](CCCNC(=N)N)C(=O)N[C@@H](CCCCN)C(=O)N[C@@H](CCCNC(=N)N)C(=O)N[C@@H](CCC(N)=O)C(=O)N[C@@H](CCC(N)=O)C(N)=O)[C@@H](C)CC)[C@@H](C)CC)[C@@H](C)O)[C@@H](C)O)C(C)C)C(C)C` [melittin], in data set [2], the “cytotoxicity in cancer and normal cells” value is “high cytotoxicity”. For the same molecule, the “concentration showing hemolytic activity” value in data set [3] is “exceeding 8 μg/mL”. Also, the concentration showing cytotoxicity in data set [4] and in data set [5] was not below 8000 ng/mL in each case.
